This passage reports minimal effective concentration and IC50 results from patent US20240239806A1, “COMPOUNDS, COMPOSITIONS AND METHODS OF TREATING DISORDERS” (Chengdu Anticancer Bioscience, Ltd., priority 2021, published 2024).

For the assay, the system named is RPEMYC^H2B-GFP cells. Kind of assay: Phenotypic screening assay (mitotic arrest, polyploidy). To be noted: 1 nM to 30 μM; for IC50: read-out: Proliferative arrest (>50%). The format is cell-based. As to the method: We have previously developed a mechanism-informed phenotypic screening assay to identify novel antimitotic agents. Equipped with a prior understanding of the versatile functions of the chromosomal passenger protein (CPP) complex in orchestrating karyokinesis and cytokinesis, the screening assay is to score for phenotypes typically seen when the CPP complex is disabled. Specifically, the parameters for a positive hit are a temporary elevation of mitotic index (MI) at 24 hours of drug treatment and an accumulation of polyploid cells at 48 hours of drug treatment, indicative of mitotic arrest and cytokinetic failure respectively. These parameters exclude compounds that elicit only a prolonged arrest of cells in mitosis, a phenotype typically provoked by spindle toxins. The screening procedure is briefly summarized here. RPEMYC^H2B-GFP cells engineered to express a Histone 2B-EGFP fusion protein were passaged as batches of 96-well plates, 18-24 hours before exposure to the chemical compounds of the present disclosure at concentrations from 1 nM to 30 μM. At 24, 48 or 72 hours after initiation of treatment, cells were analyzed for either an arrest in mitosis or a change in DNA content by GE IN-Cell Analyzer 2000. As set forth in Table 2 below, a value of greater than or equal to 1 nM and less than or equal to 1.0 μM is marked “A”; a value greater than 1.00 μM and less than or equal to 10.0 μM is marked “B”; a value greater than 10.0 μM and less than or equal to 30.0 μM is marked “C”; and a value greater than 30.0 μM is marked “D.”

Where [1] appears, read: read-out: Min. Effective conc. for Polyploidy (≥5%).

Where two headings read alike, the source gives them in different places.

As for `Cc1cc(Oc2ccnc3ccc(C(N)=O)cc23)cc(-n2cccn2)c1` [Compound 1, 4-(3-methyl-5-(1H-pyrazol-1-yl)phenoxy)quinoline-6-carboxamide], the minimal effective concentration is 0.001 to 1 µM under setting [1] and 0.001 to 1 µM (read-out: Mitotic Arrest (≥5%)).
Regarding `NC(=O)c1ccc2nccc(Oc3cc(Cl)cc(-n4cccn4)c3)c2c1` [Compound 2, 4-(3-chloro-5-(1H-pyrazol-1-yl)phenoxy)quinoline-6-carboxamide], the minimal effective concentration under setting [1] is above 30 µM and the minimal effective concentration (read-out: Mitotic Arrest (≥5%)) is above 30 µM.
As for `COc1cc(Oc2ccnc3ccc(C(N)=O)cc23)cc(O[C@@H]2CCOC2)c1` [Compound 3, (R)-4-(methoxy-5-((tetrahydrofuran-3-yl)oxy)phenoxy)quinoline-6-carboxamide], the minimal effective concentration by setting is: under setting [1], 0.001 to 1 µM; (read-out: Mitotic Arrest (≥5%)) 0.001 to 1 µM.
For `COc1cc2nccc(Oc3cc(-n4cccn4)cc(-n4cccn4)c3)c2cc1C(N)=O` [Compound 4, 4-(3,5-di(1H-pyrazol-1-yl)phenoxy)-7-methoxyquinoline-6-carboxamide], the minimal effective concentration reads like this: under setting [1], 0.001 to 1 µM; (read-out: Mitotic Arrest (≥5%)) 0.001 to 1 µM.
For the molecule `COc1cc2nccc(Oc3cc(Cl)cc(-n4cccn4)c3)c2cc1C(N)=O` [Compound 5, 4-(3-chloro-5-(1H-pyrazol-1-yl)phenoxy)-7-methoxyquinoline-6-carboxamide], the minimal effective concentration reads like this: under setting [1], 1 to 10 µM; (read-out: Mitotic Arrest (≥5%)) 1 to 10 µM.
On to `COc1cc(Oc2ccnc3cc(OC)c(C(N)=O)cc23)cc(OC2CCOC2)c1` (stereo not drawn) [Compound 6, 7-methoxy-4-(3-methoxy-5-((tetrahydrofuran-3-yl)oxy)phenoxy)quinoline-6-carboxamide], for which the minimal effective concentration is 0.001 to 1 µM under setting [1] and 0.001 to 1 µM (read-out: Mitotic Arrest (≥5%)).
For `COc1cc(Oc2ccnc3ccccc23)cc(C(=O)O)c1` [Compound 9, 3-methoxy-5-(quinolin-4-yloxy) benzoic add], the IC50 was above 30000 nM. Further, the minimal effective concentration under setting [1] was above 30 µM. Moreover, the minimal effective concentration (read-out: Mitotic Arrest (≥5%)) was above 30 µM.
In the case of `CNC(=O)c1cc(OC)cc(Oc2ccnc3ccccc23)c1` [Compound 10, 3-methoxy-N-methyl-5-(quinolin-4-yloxy)benzamide], the IC50 lay within 1000 to 10000 nM. The minimal effective concentration under setting [1] was 1 to 10 µM. Moreover, for the setting “read-out: Mitotic Arrest (≥5%)”, the minimal effective concentration is 0.001 to 1 µM.
The matching figures for `COc1cc(Oc2ccnc3ccccc23)cc(C(F)(F)F)c1` [Compound 11]: 1000 to 10000 nM, 1 to 10 µM and 1 to 10 µM.
On to `COc1cc(Oc2ccnc3ccccc23)cc(-c2nc(C)no2)c1` [Compound 13, 5-(3-methoxy-5-(quinolin-4-yloxy)phenyl)-3-methyl-oxadiazole], for which the IC50 fell in the range of 1 to 1000 nM. Also, the minimal effective concentration under setting [1] lay in the range of 0.001 to 1 µM. Also, the minimal effective concentration (read-out: Mitotic Arrest (≥5%)) is 0.001 to 1 µM.
For `COc1cc(NC(C)=O)cc(Oc2ccnc3cc(OC)c(C(N)=O)cc23)c1` [Compound 31, 4-(3-acetamido-5-methoxyphenoxy)-7-methoxyquinoline-6-carboxamide], the IC50 lay in the range of 1 to 1000 nM. Also, under setting [1], the minimal effective concentration lay in the range of 0.001 to 1 µM. The minimal effective concentration (read-out: Mitotic Arrest (≥5%)) is 0.001 to 1 µM.
In the case of `COC(=O)c1cc(OC)cc(Oc2ncnc3sccc23)c1` [Compound 41, methyl 3-methoxy-5-(thieno[2,3-d]pyrimidin-4-yloxy)benzoate], the IC50 is 1 to 1000 nM. For the same molecule, the minimal effective concentration under setting [1] is 0.001 to 1 µM. Further, under “read-out: Mitotic Arrest (≥5%)”, the minimal effective concentration is 0.001 to 1 µM.
On to `CNC(=O)c1cc2c(Oc3cc(OC)cc(-n4cccn4)c3)ccnc2cc1OC` [Compound 44, 7-Methoxy-4-(3-methoxy-5-(1H-pyrazol-1-yl)phenoxy)-N-methylquinoline-6-carboxamide], for which the IC50 lay within 1000 to 10000 nM. The minimal effective concentration under setting [1] is 1 to 10 µM. Besides, the minimal effective concentration (read-out: Mitotic Arrest (≥5%)) lay within 1 to 10 µM.
